Tests used:
[1] = system: phosphorylation of FLT3 and its down-stream effector STAT5; assay: Western blotting of p-FLT3 and p-STAT5 in MV4-11 cells; format: cell-based; settings: Homo sapiens; at 30 nM treatment, 3 hours, FLT3-ITD positive MV4-11 leukemia cells; read-out: inhibition activity against phosphorylation of FLT3 and its down-stream effector STAT5
Method in brief: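 MV4-11 cells held overnight in IMDM with 0.1% FBS, then 3 million cells treated with compound for 3 h. Whole lysates immunoblotted for p-FLT3 (Tyr-591), p-STAT5 (Tyr-694) and actin. Band intensities at 30 nM compared to DMSO control; % inhibition = (1 − relative intensity) × 100.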

FLT3-D835Y mutant kinase = biological target: T1, FLT3-D835Y mutant kinase (Homo sapiens, UniProt P36888, D835Y); assay: FLT3-D835Y mutant kinase assay (AlphaScreen); format: biochemical; settings: read-out: Ranking of IC50 values, FLT3-D835Y
T1 construct: purchased SignalChem
T1 sequence (P36888 27-993 D835Y): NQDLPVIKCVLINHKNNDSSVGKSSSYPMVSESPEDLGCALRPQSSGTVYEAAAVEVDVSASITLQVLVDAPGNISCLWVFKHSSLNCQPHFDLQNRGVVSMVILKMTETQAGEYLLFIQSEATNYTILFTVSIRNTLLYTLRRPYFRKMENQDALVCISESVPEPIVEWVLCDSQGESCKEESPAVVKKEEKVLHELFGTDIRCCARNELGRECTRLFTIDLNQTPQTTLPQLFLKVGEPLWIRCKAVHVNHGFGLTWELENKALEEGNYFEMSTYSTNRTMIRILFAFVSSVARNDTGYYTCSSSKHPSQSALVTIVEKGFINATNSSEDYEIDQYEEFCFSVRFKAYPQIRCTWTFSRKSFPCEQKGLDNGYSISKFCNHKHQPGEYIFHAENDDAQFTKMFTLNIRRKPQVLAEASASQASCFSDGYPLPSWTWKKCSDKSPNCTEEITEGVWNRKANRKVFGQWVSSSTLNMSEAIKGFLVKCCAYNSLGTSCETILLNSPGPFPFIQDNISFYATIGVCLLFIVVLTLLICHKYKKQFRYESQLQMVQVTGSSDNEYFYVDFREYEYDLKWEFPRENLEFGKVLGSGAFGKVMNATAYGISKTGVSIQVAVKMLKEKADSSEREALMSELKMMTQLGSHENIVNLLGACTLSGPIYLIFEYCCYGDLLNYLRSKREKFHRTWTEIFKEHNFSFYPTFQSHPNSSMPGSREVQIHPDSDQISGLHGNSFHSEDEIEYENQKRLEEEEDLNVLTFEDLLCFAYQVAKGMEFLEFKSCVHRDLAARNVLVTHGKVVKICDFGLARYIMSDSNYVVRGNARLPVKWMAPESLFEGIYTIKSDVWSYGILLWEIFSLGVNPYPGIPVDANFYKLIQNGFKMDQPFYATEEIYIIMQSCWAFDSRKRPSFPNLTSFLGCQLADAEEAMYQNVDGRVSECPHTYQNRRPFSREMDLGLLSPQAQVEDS
Method in brief: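 AlphaScreen readout of biotin-poly(Glu4:Tyr1) phosphorylation by 1 ng recombinant FLT3-D835Y. Conditions were 10 μM ATP, 10 mM MgCl2, MOPS pH 7.0, 30 min at 30 °C, EDTA stop. Compounds were serially diluted in duplicate to derive IC50.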

[2] = system: THP-1 human acute monocytic leukemia cell with NRAS G12D mutation; assay: THP-1 cell proliferation assay (counter screen); format: cell-based; settings: Homo sapiens, THP-1 cells, 72 hours treatment, CellTiter96, read-out: anti-proliferation activity THP-1 NRAS N12D, IC50 ranking
Method in brief: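 Viability measured as 490 nm absorbance after 2–4 h with CellTiter96 AQueous One reagent, following 72 h treatment with rising compound concentrations. THP-1 cells, 5000/well, grown in RPMI 1640 with 10% FBS and 0.05 mM 2-mercaptoethanol at 37° C, 5% CO2, plated overnight before dosing.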

Row | IC50 (FLT3-D835Y mutant kinase) [nM] | Structure (SMILES) | inhibition at 0.03 µM [1] [%] | IC50 [2] [nM]
1 | < 1 | Cn1ncc2ccc(-c3n[nH]c4c3Cc3sc(C5CCNCC5)cc3-4)cc21 [Compound 96, 3-(1-methyl-1H-indazol-6-yl)-6-(piperidin-4-yl)-1,4-dihydrothieno [2′,3′:4,5]cyclopenta [1,2-c]pyrazole] | > 50 | 300 to 1000
2 | < 1 | Cn1ncc2ccc(-c3n[nH]c4c3Cc3sc(-c5ccc(CN6CCCOCC6)cc5)cc3-4)cc21 [Compound 97, 4-(4-(3-(1-methyl-1H-indazol-6-yl)-1,4-dihydro-thieno[2′,3′:4,5]cyclopenta [1,2-c]pyrazol-6-yl)benzyl)-1,4-oxazepane] | > 50 | 1000 to 10000
3 | < 1 | Cn1ncc2ccc(-c3n[nH]c4c3Cc3sc(C5CCN(C(=O)CN6CCOCC6)CC5)cc3-4)cc21 [Compound 98, 1-(4-(3-(1-methyl-1H-indazol-6-yl)-1,4-dihydro-thieno[2′,3′:4,5]cyclopenta [1,2-c]pyrazol-6-yl)piperidin-1-yl)-2-morpholinoethan-1-one] | > 50 | 300 to 1000
4 | < 1 | Cn1ncc2ccc(-c3n[nH]c4c3Cc3sc(-c5ccc(CN6CCCC6)cc5)cc3-4)cc21 [Compound 99, 3-(1-methyl-1H-indazol-6-yl)-6-(4-(pyrrolidin-1-ylmethyl)phenyl)-1,4-dihydrothieno[2′,3′:4,5] cyclopenta[1,2-c]pyrazole] | > 50 | 1000 to 10000
5 | < 1 | Cn1ncc2ccc(-c3n[nH]c4c3Cc3sc(-c5ccc(CN6CCCCC6)cc5)cc3-4)cc21 [Compound 100, 3-(1-methyl-1H-indazol-6-yl)-6-(4-(piperidin-1-ylmethyl)phenyl)-1,4-dihydrothieno[2′,3′:4,5] cyclopenta[1,2-c]pyrazole] | > 50 | 1000 to 10000
6 | < 1 | Cn1ncc2ccc(-c3n[nH]c4c3Cc3sc(-c5ccc(CN6CC7(COC7)C6)cc5)cc3-4)cc21 [Compound 102, 6-(4-(3-(1-methyl-1H-indazol-6-yl)-1,4-dihydro-thieno[2′,3′:4,5]cyclopenta [1,2-c]pyrazol-6-yl)benzyl)-2-oxa-6-azaspiro [3.3]heptane] | > 50 | > 10000
7 | < 1 | Cn1ncc2ccc(-c3n[nH]c4c3Cc3sc(-c5ccc(CN6CCC6)cc5)cc3-4)cc21 [Compound 103, 6-(4-(azetidin-1-ylmethyl)phenyl)-3-(1-methyl-1H-indazol-6-yl)-1,4-dihydro-thieno[2′,3′:4,5]cyclopenta [1,2-c]pyrazole] | > 50 | > 10000
8 | < 1 | COC1CN(Cc2ccc(-c3cc4c(s3)Cc3c(-c5ccc6cnn(C)c6c5)n[nH]c3-4)cc2)C1 [Compound 105, 6-(4-((3-methoxyazeti-din-1-yl)methyl)phenyl)-3-(1-methyl-1H-indazol-6-yl)-1,4-dihydrothieno [2′,3′:4,5]cyclopenta [1,2-c]pyrazole] | > 50 | > 10000

More lines, now with the values behind:

Row | Structure (SMILES) | IC50 (FLT3-D835Y mutant kinase) [nM] | inhibition at 0.03 µM [1] [%] | IC50 [2] [nM]
9 | Cn1ncc2ccc(-c3n[nH]c4c3Cc3sc(-c5ccc(NC6CCOCC6)cc5)cc3-4)cc21 [Compound 72, N-(4-(3-(1-methyl-1H-indazol-6-yl)-1,4-dihydro-thieno[2′,3′:4,5]cyclopenta [1,2-c]pyrazol-6-yl)phenyl)tetrahydro-2H-pyran-4-amine] | 1 to 10 | > 50 | > 10000
10 | C[C@@H]1COCCN1Cc1ccc(-c2cc3c(s2)Cc2c(-c4ccc5cnn(C)c5c4)n[nH]c2-3)cc1 [Compound 74, (R)-3-methyl-4-(4-(3-(1-methyl-1H-indazol-6-yl)-1,4-dihydrothieno [2′,3′:4,5]cyclopenta [1,2-c]pyrazol-6-yl)benzyl)morpholine] | < 1 | > 50 | > 10000
11 | C[C@H]1COCCN1Cc1ccc(-c2cc3c(s2)Cc2c(-c4ccc5cnn(C)c5c4)n[nH]c2-3)cc1 [Compound 75, (S)-3-methyl-4-(4-(3-(1-methyl-1H-indazol-6-yl)-1,4-dihydrothieno [2′,3′:4,5]cyclopenta [1,2-c]pyrazol-6-yl)benzyl)morpholine] | < 1 | > 50 | > 10000
12 | Cn1ncc2ccc(-c3n[nH]c4c3Cc3sc(N5CCOCC5)cc3-4)cc21 [Compound 78, 4-(3-(1-methyl-1H-indazol-6-yl)-1,4-dihydro-thieno[2′,3′:4,5]cyclopenta [1,2-c]pyrazol-6-yl) morpholine] | < 1 | > 50 | > 10000
13 | Cn1ncc2ccc(-c3n[nH]c4c3Cc3sc(N5CCOCC5=O)cc3-4)cc21 [Compound 79, 4-(3-(1-methyl-1H-indazol-6-yl)-1,4-dihydro-thieno[2′,3′:4,5]cyclopenta [1,2-c]pyrazol-6-yl) morpholin-3-one] | < 1 | > 50 | > 10000
14 | Cn1ncc2ccc(-c3n[nH]c4c3Cc3sc(-c5ccc(CN6CCC(N7CCOCC7)CC6)cc5)cc3-4)cc21 [Compound 80, 4-(1-(4-(3-(1-methyl-1H-indazol-6-yl)-1,4-dihydro-thieno[2′,3′:4,5]cyclopenta [1,2-c]pyrazol-6-yl)benzyl)piperidin-4-yl) morpholine] | < 1 | > 50 | > 10000

From patent US12448394B2, “Heterocyclic pyrazole derivatives as type III receptor tyrosine kinase inhibitors” (DEVELOPMENT CENTER FOR BIOTECHNOLOGY, priority 2019, dated 2025)
